Laboratory results reported in patent US6838416B2, “Herbicidal 5-benzyloxymethyl-1,2-isoxazoline derivatives” (Korea Research Institute of Chemical Technology, priority 2000, dated 2005).

Tests used:
[1] = tested on: SAGPY (tuber); assay: Assay for herbicidal activity, paddy pots: SAGPY; format: in vivo, Sagittaria pygmaea MTQ; settings: three weeks after application, 0 untreated control, 100 complete kill
Method in brief: (§1)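 Plants are grown in 140 cm^2 pots of paddy soil, a sandy loam of pH 6 with 1.2% organic matter.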

[2] = tested on: CYPSE (tuber); assay: Assay for herbicidal activity, paddy pots: CYPSE; format: in vivo, Cyperus serotinus ROTTB; settings: three weeks after application, 0 untreated control, 100 complete kill
Method in brief: as §1

[3] = tested on: paddy weeds; assay: Greenhouse herbicidal assays, overall statements on paddy weeds; format: in vivo
Excerpt: (§2) To evaluate herbicidal activity against the paddy weeds in the paddy rice (ORYSA: Oryza sativa L.), the herbicidal activity of the compounds of the invention was compared to that of the compound No.109 (compound A) disclosed in U.S. Pat. No. 4,983,210 which has a similar structure with that of the present invention. The paddy weeds tested were ECHOR (Echinochloa crus-galli var. oryzicola), SCPJU (Scirpus juncoides ROXB), MOOVA (Monochoria vaginalis PRESL), CYPSE (Cyperus serotinus ROTTB), and SAGPY (Sagittaria pygmaea MTQ).
The vessels employed were plastic pots having an area of 140 cm^2 and filled with a sandy loam soil containing 1.2% organic matter (pH 6). Rice seedlings at the 3-leaf stage (ORYSA: Oryza sativa L.) and pregerminated seeds of rice were transplanted at the depth of 2 cm or seeded on the soil surface, respectively. Then the seeds of ECHOR, SCPJU, and MOOVA were seeded and the tubers of CYPSE and SAGPY also planted on the soil surface in the above plastic pot, wherein the pots were watered at the depth of 3 cm just after planting.
Two days after planting, a solution of the test compound and a non-ionic emulsifier (Tween-20) in 50% acetone, was diluted with water to a concentration of 0.016, 0.063, 0.25, 1.0, and 4.0 kg/ha, respectively and applied evenly to the test pots. […]

[4] = tested on: ECHOR (seed); assay: Assay for herbicidal activity, paddy pots: ECHOR; format: in vivo, Echinochloa crus-galli var. oryzicola; settings: three weeks after application, 0 untreated control, 100 complete kill
Method in brief: as §1

[5] = tested on: MOOVA (seed); assay: Assay for herbicidal activity, paddy pots: MOOVA; format: in vivo, Monochoria vaginalis PRESL; settings: three weeks after application, 0 untreated control, 100 complete kill
Method in brief: (§3)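 Paddy pot test; 140 cm^2 plastic pots; sandy loam, 1.2% organic matter, pH 6.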

[6] = tested on: ORYSA (seed); assay: Assay for herbicidal activity, paddy pots: phytotoxicity to seeded (pregerminated) rice; format: in vivo, Oryza sativa L.; settings: three weeks after application, 0 untreated control, 100 complete kill
Excerpt: as §2, with “No. 4,983,210 which has a similar structure with that of the present invention.” left out, “PRESL), CYPSE” left out, “MTQ). The vessels employed were plastic pots having an area of 140 cm^2 and filled with a sandy loam soil containing 1.2% organic matter (pH 6).” for “MTQ).”

[7] = tested on: ORYSA (3-leaf stage); assay: Assay for herbicidal activity, paddy pots: phytotoxicity to transplanted rice seedlings; format: in vivo, Oryza sativa L.; settings: three weeks after application, 0 untreated control, 100 complete kill
Excerpt: as §2, with “No. 4,983,210 which has a similar structure with that of the present invention.” left out, “PRESL), CYPSE” left out, “MTQ). The vessels employed were plastic pots having an area of 140 cm^2 and filled with a sandy loam soil containing 1.2% organic matter (pH 6).” for “MTQ).”

[8] = tested on: SCPJU (seed); assay: Assay for herbicidal activity, paddy pots: SCPJU; format: in vivo, Scirpus juncoides ROXB; settings: three weeks after application, 0 untreated control, 100 complete kill
Method in brief: as §3

SMILES: CC1(COCc2c(F)cccc2F)CC(c2cccs2)=NO1 (stereo not shown) [Compound A, reference compound]
- SAGPY (tuber) herbicidal activity, visual percentage grading ([1]; 0.016 kg/ha): 0%
- SAGPY (tuber) herbicidal activity, visual percentage grading ([1]; 0.063 kg/ha): 0%
- SAGPY (tuber) herbicidal activity, visual percentage grading ([1]; 0.250 kg/ha): 100%
- SAGPY (tuber) herbicidal activity, visual percentage grading ([1]; 1.000 kg/ha): 100%
- SAGPY (tuber) herbicidal activity, visual percentage grading ([1]; 4.000 kg/ha): 100%
- CYPSE (tuber) herbicidal activity, visual percentage grading ([2]; 0.016 kg/ha): 0%
- CYPSE (tuber) herbicidal activity, visual percentage grading ([2]; 0.063 kg/ha): 0%
- CYPSE (tuber) herbicidal activity, visual percentage grading ([2]; 0.250 kg/ha): 10%
- CYPSE (tuber) herbicidal activity, visual percentage grading ([2]; 1.000 kg/ha): 100%
- CYPSE (tuber) herbicidal activity, visual percentage grading ([2]; 4.000 kg/ha): 100%
- herbicidal activity, in words ([3]; at the higher doses): active
- herbicidal activity, in words ([3]; at the lower doses): inactive
- ECHOR (seed) herbicidal activity, visual percentage grading ([4]; 0.016 kg/ha): 0%
- ECHOR (seed) herbicidal activity, visual percentage grading ([4]; 0.063 kg/ha): 0%
- ECHOR (seed) herbicidal activity, visual percentage grading ([4]; 0.250 kg/ha): 20%
- ECHOR (seed) herbicidal activity, visual percentage grading ([4]; 1.000 kg/ha): 100%
- ECHOR (seed) herbicidal activity, visual percentage grading ([4]; 4.000 kg/ha): 100%
- MOOVA (seed) herbicidal activity, visual percentage grading ([5]; 0.016 kg/ha): 0%
- MOOVA (seed) herbicidal activity, visual percentage grading ([5]; 0.063 kg/ha): 0%
- MOOVA (seed) herbicidal activity, visual percentage grading ([5]; 0.250 kg/ha): 80%
- MOOVA (seed) herbicidal activity, visual percentage grading ([5]; 1.000 kg/ha): 80%
- MOOVA (seed) herbicidal activity, visual percentage grading ([5]; 4.000 kg/ha): 100%
- ORYSA (seed) phytotoxicity, visual percentage grading ([6]; 0.016 kg/ha): 0%
- ORYSA (seed) phytotoxicity, visual percentage grading ([6]; 0.063 kg/ha): 0%
- ORYSA (seed) phytotoxicity, visual percentage grading ([6]; 0.250 kg/ha): 20%
- ORYSA (seed) phytotoxicity, visual percentage grading ([6]; 1.000 kg/ha): 100%
- ORYSA (seed) phytotoxicity, visual percentage grading ([6]; 4.000 kg/ha): 100%
- ORYSA (3-leaf stage) phytotoxicity, visual percentage grading ([7]; 0.016 kg/ha): 0%
- ORYSA (3-leaf stage) phytotoxicity, visual percentage grading ([7]; 0.063 kg/ha): 0%
- ORYSA (3-leaf stage) phytotoxicity, visual percentage grading ([7]; 0.250 kg/ha): 0%
- ORYSA (3-leaf stage) phytotoxicity, visual percentage grading ([7]; 1.000 kg/ha): 0%
- ORYSA (3-leaf stage) phytotoxicity, visual percentage grading ([7]; 4.000 kg/ha): 0%
- SCPJU (seed) herbicidal activity, visual percentage grading ([8]; 0.016 kg/ha): 0%
- SCPJU (seed) herbicidal activity, visual percentage grading ([8]; 0.063 kg/ha): 0%
- SCPJU (seed) herbicidal activity, visual percentage grading ([8]; 0.250 kg/ha): 10%
- SCPJU (seed) herbicidal activity, visual percentage grading ([8]; 1.000 kg/ha): 70%
- SCPJU (seed) herbicidal activity, visual percentage grading ([8]; 4.000 kg/ha): 100%
